Assay results from patent publication US20050209278A1, “Piperidinyl- and piperazinyl-sulfonylmethyl hydroxamic acids and their use as protease inhibitors” (priority 2002, published 2005).
Structures can show the parent of a compound that is named as a salt. Where two headings read alike, the source gives them in different places.

Experiments:
MMP-2 = biological target: T1, MMP-2 (Homo sapiens, UniProt P08253); assay: In vitro MMP inhibition, Ki determination (fluorogenic substrate II); assay type: biochemical
T1 construct: made in house; host or cells: MMP-2-transfected p2AHT2 cells
T1 sequence (P08253 110-660): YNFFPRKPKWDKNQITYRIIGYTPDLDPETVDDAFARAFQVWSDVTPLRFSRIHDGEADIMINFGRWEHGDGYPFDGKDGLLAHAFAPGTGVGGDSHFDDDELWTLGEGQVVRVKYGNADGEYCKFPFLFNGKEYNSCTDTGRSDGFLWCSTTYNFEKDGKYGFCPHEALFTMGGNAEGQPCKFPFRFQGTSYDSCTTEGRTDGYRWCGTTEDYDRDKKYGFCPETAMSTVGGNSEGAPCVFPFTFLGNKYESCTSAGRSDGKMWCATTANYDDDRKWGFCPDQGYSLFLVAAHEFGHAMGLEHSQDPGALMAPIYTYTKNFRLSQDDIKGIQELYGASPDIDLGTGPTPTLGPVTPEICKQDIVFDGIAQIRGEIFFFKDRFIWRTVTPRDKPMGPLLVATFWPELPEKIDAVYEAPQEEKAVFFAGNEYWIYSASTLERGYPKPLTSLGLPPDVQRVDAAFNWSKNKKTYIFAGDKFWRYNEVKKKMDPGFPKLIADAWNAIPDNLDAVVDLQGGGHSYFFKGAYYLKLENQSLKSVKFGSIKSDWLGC
Method: (§1) Several hydroxamic acids and salts thereof were analyzed in in vitro assays to determine their ability to inhibit the MMP cleavage of peptide substrates. […] and IC50 constants were calculated from the assayed hydroxamic acid-MMP interactions.
(§2) Human recombinant MMP-1, MMP-2, MMP-9, MMP-13, and MMP-14 were used in this assay. All enzymes were prepared in Assignee's laboratories following usual laboratory procedures. Protocols for the preparation and use of these enzymes are available in the scientific literature. See, e.g., Enzyme Nomenclature (Academic Press, San Diego, Calif., 1992) (and the citations therein). See also, Freije et al., “Molecular cloning and expression of collagenase-3, a novel human matrix metalloproteinase produced by breast carcinomas,” J Biol. Chem., 269(24), 16766-16773 (1994).
The MMP-2 proenzyme was purified by gelatin Sepharose chromatography from MMP-2-transfected p2AHT2 cells provided by Dr. Gregory Goldberg of Washington University (St. Louis, Mo.).
(§3) All MMPs were activated using 4-aminophenylmercuric acetate (“APMA”, Sigma Chemical, St. Louis, Mo.) or trypsin. MMP-9 also was activated using human recombinant MMP-3 (purified in Assignee's laboratory following standard cloning and purification techniques).
(§4) Two fluorogenic, methoxycoumarin-containing polypeptide substrates were used in the MMP inhibition assays: [drawing 427] Here, “Dpa” is 3-(2,4-dinitrophenyl)-L-2,3-diaminopropionyl group, and “MCA” is 7-methoxycoumarin-4-yl acetyl. Substrate (I) was purchased from Baychem (Redwood City, Calif.), and substrate II was prepared Assignee's laboratory. Substrate I was used in the IC50 determination assays, while substrate II was used in the Ki determination assays. In the absence of MMP inhibitory activity, either substrate is cleaved at the Gly-Leu peptide bond. This cleavage separates the highly fluorogenic peptide from the 2,4-dinitrophenyl quencher, thus resulting in increase of fluorescent intensity.
(§5) The stock solutions of the assayed hydroxamic acids (or salts thereof) were prepared in 1% dimethyl sulfoxide (DMSO). These stock solutions were diluted in Buffer A (100 mM Tris-HCl, 100 mM NaCl, 10 mM CaCl2, 0.05% polyoxyethylene 23 lauryl ether, pH 7.5) to obtain solutions with different hydroxamic acid concentrations, i.e., assay solutions with different concentrations of the assayed MMP inhibitory compound. The experiment controls contained the same amount of Buffer A/DMSO as the assayed sample, but contained no hydroxamic acid (or salt thereof).
The assays from which the Ki determinations were made were performed as follows. The assayed hydroxamic acid samples were incubated in separate wells of untreated white polystyrene plates (Nunc Nalgene International, Rochester, N.Y.), and analyzed on a Tecan SpectraFlour Plus plate reader. The excitation wavelength was 330 nm, and the emission wavelength—420 nm. All samples (assayed hydroxamic acids and controls) were incubated in separate plate wells at room temperature for 1 hr in the presence of 4 μM of MMP substrate (II). In the absence of MMP inhibitory activity, substrate II was cleaved at the Gly-Leu bond resulting in an increase of relative fluorescence. Inhibition was observed as a reduced rate of this increase in relative fluorescence. The various hydroxamic acids were analyzed using a single low enzyme concentration with a single substrate concentration fixed at or below the Km. This protocol is a modification of method by Knight et al., FEBS Lett., 296(3), 263-266 (1992). Apparent inhibitory constants were determined by non-linear regression of reaction velocity as a function of inhibitor and enzyme concentration using Morrison's equation, as described by Kuzmic, Anal. Biochem. 286, 45-50 (2000). […] Since the substrate concentration was chosen to be at or below the Km, the apparent Ki's from this analysis were reported as Ki's without correction for the influence of substrate.

MMP-13 = biological target: T2, MMP-13 (Homo sapiens, UniProt P45452); assay: as above; assay type: biochemical
T2 construct: made in house; host or cells: baculovirus / insect cells
Method: as §1, §2
The MMP-13 was obtained as a proenzyme from a full-length cDNA clone using baculovirus, as described by V. A. Luckow, “Insect Cell Expression Technology,” Protein Engineering: Principles and Practice, pp. 183-218 (edited by J. L. Cleland et al., Wiley-Liss, Inc., 1996). The expressed proenzyme was first purified over a heparin agarose column, and then over a chelating zinc chloride column. The proenzyme was then activated by APMA for use in the assay. […] See also, O'Reilly et al, Baculovirus Expression Vectors: A Laboratory Manual (W.H. Freeman and Co., New York, N.Y., 1992). See also, King et al., The Baculovirus Expression System: A Laboratory Guide (Chapman & Hall, London, England, 1992).
as §3, §4, §5
The assays from which the Ki determinations were made were performed as follows. The assayed hydroxamic acid samples were incubated in separate wells of untreated white polystyrene plates (Nunc Nalgene International, Rochester, N.Y.), and analyzed on a Tecan SpectraFlour Plus plate reader. The excitation wavelength was 330 nm, and the emission wavelength—420 nm. All samples (assayed hydroxamic acids and controls) were incubated in separate plate wells at room temperature for 1 hr in the presence of 4 μM of MMP substrate (II). In the absence of MMP inhibitory activity, substrate II was cleaved at the Gly-Leu bond resulting in an increase of relative fluorescence. Inhibition was observed as a reduced rate of this increase in relative fluorescence. The various hydroxamic acids were analyzed using a single low enzyme concentration with a single substrate concentration fixed at or below the Km.

[1] = human recombinant enzyme, 4 μM substrate II, room temperature, 1 hr, read-out: MMP-2 Ki
[2] = human recombinant enzyme, 4 μM substrate II, room temperature, 1 hr, read-out: MMP-13 Ki
[3] = value not in parenthesis, read-out: MMP-2 Ki
[4] = value not in parenthesis, read-out: MMP-13 Ki
[5] = MMP-2 Ki, value not in parenthesis
[6] = MMP-13 Ki, value not in parenthesis

| Compound | Ki (MMP-2; [1]) [nM] | Ki (MMP-13; [2]) [nM] | Ki (MMP-2; [3]) [nM] | Ki (MMP-13; [4]) [nM] | also measured |
| --- | --- | --- | --- | --- | --- |
| CCCCOc1ccc(C2CCN(S(=O)(=O)C3(C(=O)NO)CCN(CCOC)CC3)CC2)cc1 [Example 16, 4-{[4-(4-butoxyphenyl)piperidin-1-yl]sulfonyl}-N-hydroxy-1-(2-methoxyethyl)piperidine-4-carboxamide Hydrochloride] | 1.24 | 0.34 | – | – | – |
| CCCCc1ccc(C2CCN(S(=O)(=O)C3(C(=O)NO)CCOCC3)CC2)s1 [Example 19, 4-{[4-(5-butylthien-2-yl)piperidin-1-yl]sulfonyl}-N-hydroxytetrahydro-2H-pyran-4-carboxamide] | 2.06 | 5.47 | – | – | – |
| COCCN1CCC(C(=O)NO)(S(=O)(=O)N2CCC(c3ccc(OCCCC(F)(F)F)cc3)CC2)CC1 [Example 20, N-hydroxy-1-(2-methoxyethyl)-4-({4-[4-(4,4,4-trifluorobutoxy)phenyl]piperidin-1-yl}sulfonyl)piperidine-4-carboxamide Hydrochloride] | 0.83 | 0.15 | – | – | – |
| O=C(NO)C1(S(=O)(=O)N2CCC(c3ccc(OCC(F)(F)F)cc3)CC2)CCN(C2CC2)CC1 [Example 25, 1-cyclopropyl-N-hydroxy-4-({4-[4-(2,2,2-trifluoroethoxy)phenyl]piperidin-1-yl}sulfonyl)piperidine-4-carboxamide Hydrochloride] | 1.18 | 0.97 | – | – | – |
| CCCCCCCCC1CCN(S(=O)(=O)C2(C(=O)NO)CCOCC2)CC1 [Example 26, 4-(4-octyl-piperidine-1-sulfonyl)-tetrahydro-pyran-4-carboxylic Acid Hydroxyamide] | 0.78 | 0.51 | – | – | – |
| O=C(NO)C1(S(=O)(=O)N2CCC(c3cnc(OCC(F)(F)C(F)(F)F)cn3)CC2)CCOCC1 [Example 27] | 0.59 | 0.5 | – | – | – |
| O=C(NO)C1(S(=O)(=O)N2CCN(c3ccc(-c4ccc(Cl)cc4)cn3)CC2)CCOCC1 [Example 60] | – | – | 0.54 | 0.32 | – |
| O=C(NO)C1(S(=O)(=O)N2CCN(c3ccc(COCC(F)(F)C(F)(F)C(F)(F)C(F)F)cc3)CC2)CCOCC1 [Example 68] | – | – | – | – | Ki (MMP-2; [5]): 4.69 nM; Ki (MMP-13; [6]): 1.85 nM |
| O=C(NO)C1(S(=O)(=O)N2CCN(c3ccc(COCC(F)(F)C(F)(F)C(F)(F)F)cc3)CC2)CCOCC1 [Example 69] | – | – | – | – | Ki (MMP-2; [5]): 5.44 nM; Ki (MMP-13; [6]): 2.11 nM |
| O=C(NO)C1(S(=O)(=O)N2CCN(c3ncc(Br)cn3)CC2)CCOCC1 [Example 103] | – | – | 3.44 | 3.48 | – |
| O=C(NO)C1(S(=O)(=O)N2CCN(c3ncc(Br)cn3)CC2)CCOCC1 [Example 104] | – | – | 4.73 | 3.55 | – |
| O=C(NO)C1(S(=O)(=O)N2CCN(c3ncccn3)CC2)CCOCC1 [Example 106] | – | – | 134 | 27.2 | – |
| O=C(NO)C1(S(=O)(=O)N2CCN(c3ncccn3)CC2)CCOCC1 [Example 107] | – | – | 115 | 22.4 | – |
| COc1ccc(N2CCN(S(=O)(=O)C3(C(=O)NO)CCOCC3)CC2)nc1 [Example 108] | – | – | 431 | 478 | – |

Further lines, with some results ahead:

| Ki (MMP-2; [1]) [nM] | Ki (MMP-13; [2]) [nM] | Ki (MMP-2; [3]) [nM] | Ki (MMP-13; [4]) [nM] | Compound | also measured |
| --- | --- | --- | --- | --- | --- |
| 0.418 | 0.328 | – | – | O=C(NO)C1(S(=O)(=O)N2CCN(c3ccc(CCC(F)(F)C(F)(F)F)cc3)CC2)CCOCC1 [Example 17, N-hydroxy-4-({4-[4-(3,3,4,4,4-pentafluorobutyl)phenyl]piperazin-1-yl}sulfonyl)tetrahydro-2H-pyran-4-carboxamide Hydrochloride] | – |
| 0.565 | 0.444 | – | – | O=C(NO)C1(S(=O)(=O)N2CCC(c3ccc(CCC(F)(F)C(F)(F)F)cc3)CC2)CCOCC1 [Example 18, N-hydroxy-4-({4-[4-(3,3,4,4,4-pentafluorobutyl)phenyl]piperidin-1-yl}sulfonyl)tetrahydro-2H-pyran-4-carboxamide] | – |
| 3.82 | 6.17 | – | – | CCCCCc1ccc(N2CCN(S(=O)(=O)C3(C(=O)NO)CCN(C(=O)C(F)(F)F)CC3)CC2)cc1 [Example 21, N-hydroxy-4-{[4-(4-pentylphenyl)piperazin-1-yl]sulfonyl}-1-(trifluoroacetyl)piperidine-4-carboxamide Hydrochloride] | – |
| 3.19 | 2.78 | – | – | CCCCCc1ccc(N2CCN(S(=O)(=O)C3(C(=O)NO)CCN(CC)CC3)CC2)cc1F [Example 22, 1-ethyl-4-{[4-(3-fluoro-4-pentylphenyl)piperazin-1-yl]sulfonyl}-N-hydroxypiperidine-4-carboxamine Hydrochloride] | – |
| 8.25 | 4.17 | – | – | CCCCCc1ccc(N2CCN(S(=O)(=O)C3(C(=O)NO)CCOCC3)CC2)c(F)c1 [Example 23, 4-{[4-(2-fluoro-4-pentylphenyl)piperazin-1-yl]sulfonyl}-N-hydroxytetrahydro-2H-pyran-4-carboxamide Hydrochloride] | – |
| 0.91 | 0.54 | – | – | CCCCc1ccc(C2CCN(S(=O)(=O)C3(C(=O)NO)CCN(C4CC4)CC3)CC2)nc1 [Example 24, 4-{[4-(5-butylpyridin-2-yl)piperidin-1-yl]sulfonyl}-1-cyclopropyl-N-hydroxypiperidine-4-carboxamide Hydrochloride] | – |
| – | – | 1.02 | 1.74 | CCCCCc1cnc(N2CCN(S(=O)(=O)C3(C(=O)NO)CCOCC3)CC2)s1 [Example 56] | – |
| – | – | 1.64 | 0.92 | C=CCCOC(=O)N1CCC(C(=O)NO)(S(=O)(=O)N2CCN(c3ccc(OCCCC)cc3)CC2)CC1 [Example 101] | – |
| – | – | 1.25 | 0.19 | COCCN1CCC(C(=O)NO)(S(=O)(=O)N2CCN(c3ccc(OCCCC(F)(F)F)cc3F)CC2)CC1 [Example 102] | – |
